Legend:
[1] = target: T1, PPARγ LBD (Homo sapiens, UniProt P37231); assay: Two-dimensional titration of SR11237 and unlabeled mutant RXRα LBD: CBP-1 recruitment by sGFP-PPARγ LBD (HTRF); type: biochemical; conditions: combined addition of SR11237 and RXRα at concentrations equal to PPARγ (100 nM) and higher;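 for HTRF mean; N=2: mutant RXRα LBD carries mutations that block its own coactivator recruitment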
T1 construct: MBP-Asn10-His8-TEV site (N, cleaved yes); made in house; host or cells: E. coli T7 express (co-expressed with GroEL/ES)
T1 sequence (P37231 1-505): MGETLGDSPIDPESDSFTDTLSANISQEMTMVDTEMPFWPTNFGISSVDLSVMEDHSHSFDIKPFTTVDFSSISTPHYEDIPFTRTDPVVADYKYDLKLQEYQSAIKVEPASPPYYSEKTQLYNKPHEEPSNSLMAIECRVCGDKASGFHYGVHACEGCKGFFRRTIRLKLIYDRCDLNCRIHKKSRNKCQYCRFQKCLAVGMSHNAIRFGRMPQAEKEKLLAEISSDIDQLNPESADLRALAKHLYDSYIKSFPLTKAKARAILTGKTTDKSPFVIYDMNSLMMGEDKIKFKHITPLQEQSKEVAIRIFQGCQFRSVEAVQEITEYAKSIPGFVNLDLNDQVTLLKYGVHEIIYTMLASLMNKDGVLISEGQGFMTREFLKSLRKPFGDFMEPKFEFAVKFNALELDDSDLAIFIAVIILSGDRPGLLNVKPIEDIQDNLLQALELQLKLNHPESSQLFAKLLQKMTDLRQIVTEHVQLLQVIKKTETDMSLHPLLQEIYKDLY

[2] = test system: PPARγ LBD; assay: as above; type: biochemical, human

Question: With CC1(C)CCC(C)(C)c2cc(C3(c4ccc(C(=O)O)cc4)OCCO3)ccc21 [SR11237] as the compound, how does the “CBP-1 recruitment relative to full activation of monomeric PPARγ with rosiglitazone” value [1] read?
Answer: up to 26%

Question: What about the “HTRF mean; N=2” value ([2]; SR11237 0.268435 nM, RXRα mutant LBD 0.976562 nM) of the same compound?
Answer: 7866

Question: What about the “HTRF mean; N=2” value ([2]; SR11237 0.268435 nM, RXRα mutant LBD 1.95312 nM) of the same compound?
Answer: 7838

Question: What about the “HTRF mean; N=2” value ([2]; SR11237 0.268435 nM, RXRα mutant LBD 3.90625 nM) of the same compound?
Answer: 7920

Question: What about the “HTRF mean; N=2” value ([2]; SR11237 0.268435 nM, RXRα mutant LBD 7.8125 nM) of the same compound?
Answer: 7909

Question: What about the “HTRF mean; N=2” value ([2]; SR11237 0.268435 nM, RXRα mutant LBD 31.25 nM) of the same compound?
Answer: 7903

Question: What about the “HTRF mean; N=2” value ([2]; SR11237 0.268435 nM, RXRα mutant LBD 62.5 nM) of the same compound?
Answer: 8248

Question: And the “HTRF mean; N=2” value ([2]; SR11237 0.268435 nM, RXRα mutant LBD 250 nM)?
Answer: 8688

Question: What about the “HTRF mean; N=2” value ([2]; SR11237 0.268435 nM, RXRα mutant LBD 500 nM) of the same compound?
Answer: 8760

Question: What about the “HTRF mean; N=2” value ([2]; SR11237 0.268435 nM, RXRα mutant LBD 1000 nM) of the same compound?
Answer: 8782

Question: What about the “HTRF mean; N=2” value ([2]; SR11237 0.671089 nM, RXRα mutant LBD 0.976562 nM) of the same compound?
Answer: 8003

Question: What about the “HTRF mean; N=2” value ([2]; SR11237 0.671089 nM, RXRα mutant LBD 1.95312 nM) of the same compound?
Answer: 7881

Question: What about the “HTRF mean; N=2” value ([2]; SR11237 0.671089 nM, RXRα mutant LBD 3.90625 nM) of the same compound?
Answer: 7929

Question: What about the “HTRF mean; N=2” value ([2]; SR11237 0.671089 nM, RXRα mutant LBD 7.8125 nM) of the same compound?
Answer: 7967

Question: And the “HTRF mean; N=2” value ([2]; SR11237 0.671089 nM, RXRα mutant LBD 31.25 nM)?
Answer: 8123

Question: And the “HTRF mean; N=2” value ([2]; SR11237 0.671089 nM, RXRα mutant LBD 62.5 nM)?
Answer: 8262

Question: What about the “HTRF mean; N=2” value ([2]; SR11237 0.671089 nM, RXRα mutant LBD 250 nM) of the same compound?
Answer: 8624

Question: And the “HTRF mean; N=2” value ([2]; SR11237 0.671089 nM, RXRα mutant LBD 500 nM)?
Answer: 8662

Question: And the “HTRF mean; N=2” value ([2]; SR11237 0.671089 nM, RXRα mutant LBD 1000 nM)?
Answer: 8739

Question: And the “HTRF mean; N=2” value ([2]; SR11237 1.67772 nM, RXRα mutant LBD 0.976562 nM)?
Answer: 7886

Question: And the “HTRF mean; N=2” value ([2]; SR11237 1.67772 nM, RXRα mutant LBD 1.95312 nM)?
Answer: 7834

Question: And the “HTRF mean; N=2” value ([2]; SR11237 1.67772 nM, RXRα mutant LBD 3.90625 nM)?
Answer: 7842

Question: And the “HTRF mean; N=2” value ([2]; SR11237 1.67772 nM, RXRα mutant LBD 7.8125 nM)?
Answer: 7973

Question: What about the “HTRF mean; N=2” value ([2]; SR11237 1.67772 nM, RXRα mutant LBD 31.25 nM) of the same compound?
Answer: 8258

Question: What about the “HTRF mean; N=2” value ([2]; SR11237 1.67772 nM, RXRα mutant LBD 62.5 nM) of the same compound?
Answer: 8301

Question: And the “HTRF mean; N=2” value ([2]; SR11237 1.67772 nM, RXRα mutant LBD 250 nM)?
Answer: 8705

Question: And the “HTRF mean; N=2” value ([2]; SR11237 1.67772 nM, RXRα mutant LBD 500 nM)?
Answer: 8706

Question: And the “HTRF mean; N=2” value ([2]; SR11237 1.67772 nM, RXRα mutant LBD 1000 nM)?
Answer: 8875

Question: What about the “HTRF mean; N=2” value ([2]; SR11237 10.4858 nM, RXRα mutant LBD 0.976562 nM) of the same compound?
Answer: 7841

Question: What about the “HTRF mean; N=2” value ([2]; SR11237 10.4858 nM, RXRα mutant LBD 1.95312 nM) of the same compound?
Answer: 7813

Question: And the “HTRF mean; N=2” value ([2]; SR11237 10.4858 nM, RXRα mutant LBD 3.90625 nM)?
Answer: 7835

Question: And the “HTRF mean; N=2” value ([2]; SR11237 10.4858 nM, RXRα mutant LBD 7.8125 nM)?
Answer: 7963

Question: And the “HTRF mean; N=2” value ([2]; SR11237 10.4858 nM, RXRα mutant LBD 31.25 nM)?
Answer: 8186

Question: And the “HTRF mean; N=2” value ([2]; SR11237 10.4858 nM, RXRα mutant LBD 62.5 nM)?
Answer: 8299

Question: And the “HTRF mean; N=2” value ([2]; SR11237 10.4858 nM, RXRα mutant LBD 250 nM)?
Answer: 8710

Question: And the “HTRF mean; N=2” value ([2]; SR11237 10.4858 nM, RXRα mutant LBD 500 nM)?
Answer: 8818

Question: And the “HTRF mean; N=2” value ([2]; SR11237 10.4858 nM, RXRα mutant LBD 1000 nM)?
Answer: 8916

Question: What about the “HTRF mean; N=2” value ([2]; SR11237 26.2144 nM, RXRα mutant LBD 0.976562 nM) of the same compound?
Answer: 7919

Question: What about the “HTRF mean; N=2” value ([2]; SR11237 26.2144 nM, RXRα mutant LBD 1.95312 nM) of the same compound?
Answer: 7957

Question: And the “HTRF mean; N=2” value ([2]; SR11237 163.84 nM, RXRα mutant LBD 0.976562 nM)?
Answer: 7969

Question: And the “HTRF mean; N=2” value ([2]; SR11237 163.84 nM, RXRα mutant LBD 1.95312 nM)?
Answer: 7882

Question: And the “HTRF mean; N=2” value ([2]; SR11237 163.84 nM, RXRα mutant LBD 3.90625 nM)?
Answer: 7848

Question: What about the “HTRF mean; N=2” value ([2]; SR11237 163.84 nM, RXRα mutant LBD 7.8125 nM) of the same compound?
Answer: 7981

Source: publication PMC8258697 (The Journal of Biological Chemistry, 2021)
